From paper PMC10253456, “Investigating the Contribution of Major Drug-Metabolising Enzymes to Possum-Specific Fertility Control” (International Journal of Molecular Sciences, 2023)
Read-outs that look alike come from different tables or passages of the source.

Key:
CYP3A [1] = assay: CYP3A catalytic activity (erythromycin N-demethylation) in possum liver microsomes; conditions: for Percent control catalytic activity at estimated IC50 / Percent control catalytic activity at estimated 2-fold IC50: possum liver microsomes, initial screen n=1; for Percent control catalytic activity at estimated IC50: compounds without reported IC50 at 1 µM; for Percent control catalytic activity at estimated 2-fold IC50: compounds without reported IC50 at 5 µM; for % of control (catalytic activity at 2-fold IC50) / Catalytic activity at 2-fold IC50: compound at estimated 2-fold IC50 (5 µM where none reported); for inhibition of CYP3A catalytic activities at higher concentration: 10 µM; for reduced catalytic activity of possum CYP3A, % of the control: mainly at 5 µM or an estimated 2-fold IC50, not significantly different
Experimental: (§1) Possums were collected from the Otago Peninsula (Dunedin) and the Okuti Valley, Banks Peninsula (Christchurch) in New Zealand in collaboration with the Otago Peninsula Biodiversity Group and Manaaki Whenua-Landcare Research, respectively. […] Possums were caged and humanely killed by a blow to the head, and the livers were harvested, snap-frozen in liquid nitrogen, and stored in a freezer at −80 °C until the preparation of microsomal fractions. […] Mice were euthanised by carbon dioxide inhalation and the livers were removed and microsomes prepared. […] The livers from avian species (mallards and a swan) were kindly donated by a local bird hunting group based in Dunedin, New Zealand. The livers from avian species were treated similarly to those mentioned above for the possum samples.
(§2) Microsomal preparation was carried out as previously described [76]. […] All procedures were performed at 0–4 °C. The liver samples were minced and homogenised in Buffer A (0.1 M Tris, 0.1 M potassium chloride, 1 mM EDTA, and 20 μM butylated hydroxytoluene, at pH = 7.4) using the Teflon-glass homogeniser (5–6 vertical passes). The samples were centrifuged at 10,000× g for 20 min. The supernatant was then transferred into another set of centrifuge tubes and spun at 100,000× g for 60 min. The pellet was resuspended in Buffer B (0.1 M potassium pyrophosphate, 1 mM EDTA, and 20 μM butylated hydroxytoluene, at pH = 7.4), homogenised, and recentrifuged at 100,000× g for 60 min. Finally, the pellet was homogenised in 1–2 mL of Buffer C (10 mM Tris-HCl, 1 mM EDTA, and 4% glycerol (v/v)), and stored at −80 °C until use. The protein concentration of the microsomes was determined using the bicinchoninic acid (BCA) method [77].
(§3) CYP3A catalytic activity was determined using the erythromycin N-demethylation activity assay, as described [78]. The reaction mixture (final volume of 1 mL and final protein concentration of 1 mg) contained 500 µL of microsomes in 0.1 M phosphate buffer (pH 7.4) and 400 µL of erythromycin buffer (0.45 mM), and 50 µL of the test compound was pre-warmed at 37 °C for 2 min. The reaction was initiated with 50 µL of 2.5 mM nicotinamide adenine dinucleotide phosphate (NADP^+) and incubated for 30 min at 37 °C. […] The tubes were vortexed and left for 5 min (at room temperature), and then 330 µL of saturated barium hydroxide was added. The tubes were further vortexed and left for 5 min (at room temperature). The tubes were then centrifuged at 1800× g for 10 min. To 830 µL of the supernatant, 330 µL of Nash reagent (30% (w/v) ammonium acetate, 0.4% (v/v) acetylacetone) was added and further incubated for 30 min at 60 °C. The blank tube contained 330 µL of Nash reagent and 830 µL of Milli-Q water. […] The CYP3A activities were determined in nmol/mg/min using standard curve data. Results presented are the mean ± SEM of 3 independent experiments performed in duplicate unless otherwise stated.

CYP3A [2] = assay: CYP3A catalytic activity (erythromycin N-demethylation) in mouse liver microsomes; conditions: for Percent control catalytic activity at estimated IC50 / Percent control catalytic activity at estimated 2-fold IC50: mouse liver microsomes, initial screen n=1; for Percent control catalytic activity at estimated IC50: compounds without reported IC50 at 1 µM; for Percent control catalytic activity at estimated 2-fold IC50: compounds without reported IC50 at 5 µM; for % of control (catalytic activity at 2-fold IC50) / Catalytic activity at 2-fold IC50: compound at estimated 2-fold IC50 (5 µM where none reported); for inhibition of CYP3A catalytic activities at higher concentration: 10 µM
Experimental: as §1, §2, §3

CYP3A [3] = conditions: avian; for % of control (catalytic activity at 2-fold IC50) / Catalytic activity at 2-fold IC50: compound at estimated 2-fold IC50 (5 µM where none reported)
Experimental: as §1, §2, §3

CYP3A [4] = assay: CYP3A catalytic activity (erythromycin N-demethylation) in pooled human liver microsomes; conditions: for % of control (catalytic activity at 2-fold IC50) / Catalytic activity at 2-fold IC50: compound at estimated 2-fold IC50 (5 µM where none reported); for activity at 30 min: human, pH 7.4, probe erythromycin, % of control (catalytic activity at IC50), compound at estimated IC50 (1 µM where none reported)
Experimental: as §3

UGT2B [5] = conditions: avian
UGT2B [6] = assay: p-nitrophenol glucuronidation activity in possum liver microsomes; type: biochemical, possum (Trichosurus vulpecula); conditions: for Glucuronidation Activities / Percent of Control: p-nitrophenol 0.625 mM
UGT2B [7] = assay: p-nitrophenol glucuronidation activity in pooled human liver microsomes; conditions: pooled human liver microsomes
UGT2B [8] = assay: p-nitrophenol glucuronidation activity in mouse liver microsomes; conditions: mouse
[9] = compound at estimated 2-fold IC50
[10] = at estimated IC50 and 2-fold IC50 values

Structure (SMILES) | Percent control catalytic activity at estimated IC50 (CYP3A [1]) | Percent control catalytic activity at estimated 2-fold IC50 (CYP3A [1]) | % of control (catalytic activity at 2-fold IC50) (CYP3A [1]; possum) | Catalytic activity at 2-fold IC50 (CYP3A [1]; possum) | Percent control catalytic activity at estimated IC50 (CYP3A [2]) | Percent control catalytic activity at estimated 2-fold IC50 (CYP3A [2]) | % of control (catalytic activity at 2-fold IC50) (CYP3A [2]; mouse) | Catalytic activity at 2-fold IC50 (CYP3A [2]; mouse) | % of control (catalytic activity at 2-fold IC50) (CYP3A [3]) | Catalytic activity at 2-fold IC50 (CYP3A [3]) | % of control (catalytic activity at 2-fold IC50) (CYP3A [4]) | Catalytic activity at 2-fold IC50 (CYP3A [4]) | inhibition of CYP3A catalytic activities at higher concentration (CYP3A [1]; possum) | reduced catalytic activity of possum CYP3A, % of the control (CYP3A [1]; possum) | inhibition of CYP3A catalytic activities at higher concentration (CYP3A [2]; mouse) | further results
COc1ccc(/C=C/c2cc(O)cc(O)c2)cc1O [Rhapontigenin] | 103 percent control | 103 percent control | 124 % of control | 0.40 ± 0.03 nmol/mg/min | 116 percent control | 157 percent control | 144 % of control | 0.52 ± 0.05 nmol/mg/min | 101 % of control | 0.30 ± 0.03 nmol/mg/min | 110 % of control | 0.53 nmol/mg/min | – | – | – | activity at 30 min (CYP3A [4]): 106%
C=C[C@@H]1C2=CCOC(=O)C2=CO[C@H]1O[C@@H]1O[C@H](CO)[C@@H](O)[C@H](O)[C@H]1O [Gentiopicroside] | 98 percent control | 83 percent control | 82 % of control | 0.29 ± 0.02 nmol/mg/min | 92 percent control | 85 percent control | 97 % of control | 0.56 ± 0.12 nmol/mg/min | 114 % of control | 0.32 ± 0.03 nmol/mg/min | 122 % of control | 0.54 nmol/mg/min | did not show any significant inhibition | ~ 35 % of the control | did not show any significant inhibition | –
COc1cc(C2Oc3ccc([C@H]4Oc5cc(O)cc(O)c5C(=O)[C@@H]4O)cc3OC2CO)ccc1O (some centres unmarked) [Isosilybin] | 73 percent control | – | – | – | 71 percent control | – | – | – | – | – | – | – | – | – | – | % of control (UGT2B4 catalytic activity at 2-fold IC50) (UGT2B [5]; [9]): 67 % of control; UGT2B4 catalytic activity at 2-fold IC50 (UGT2B [5]; [9]): 0.28 ± 0.11 µmol/mg/min; % of control (UGT2B4 catalytic activity at IC50) (UGT2B [5]; compound at estimated IC50): 101 % of control; inhibitory potential on glucuronidation activity with varying concentrations of p-nitrophenol (substrate) (UGT2B [6]; Table 1): no significant changes compared to their respective control activities; p-nitrophenol glucuronidation (UGT2B) activity, % of the control (UGT2B [6]; [10]): > 65 % of the control; % of control (UGT2B4 catalytic activity at 2-fold IC50) (UGT2B [6]; [9]): 65 % of control; UGT2B4 catalytic activity at 2-fold IC50 (UGT2B [6]; [9]): 2.21 ± 0.17 µmol/mg/min; % of control (UGT2B4 catalytic activity at IC50) (UGT2B [6]; compound at estimated IC50): 78 % of control; Glucuronidation Activities (UGT2B [6]; isosilybin 100 µM): 0.12 ± 0.09 µmol/mg/min; Percent of Control (UGT2B [6]; isosilybin 100 µM): 63% of Control; Glucuronidation Activities (UGT2B [6]; isosilybin 200 µM): 0.13 ± 0.05 µmol/mg/min; Percent of Control (UGT2B [6]; isosilybin 200 µM): 67% of Control; p-nitrophenol glucuronidation (UGT2B) activity, % of the control (UGT2B [7]; [10]): no significant inhibition; % of control (UGT2B4 catalytic activity at 2-fold IC50) (UGT2B [7]; [9]): 107 % of control; UGT2B4 catalytic activity at 2-fold IC50 (UGT2B [7]; [9]): 3.15 µmol/mg/min; % of control (UGT2B4 catalytic activity at IC50) (UGT2B [7]; compound at estimated IC50): 93 % of control; % of control (UGT2B4 catalytic activity at 2-fold IC50) (UGT2B [8]; [9]): 80 % of control; UGT2B4 catalytic activity at 2-fold IC50 (UGT2B [8]; [9]): 1.55 ± 0.19 µmol/mg/min; % of control (UGT2B4 catalytic activity at IC50) (UGT2B [8]; compound at estimated IC50): 96 % of control
O=C1c2ccccc2C(=O)c2c1ccc(O)c2O [Alizarin] | 70 percent control | 77 percent control | 84 % of control | 0.27 ± 0.01 nmol/mg/min | 91 percent control | 89 percent control | 96 % of control | 0.57 ± 0.06 nmol/mg/min | 94 % of control | 0.30 ± 0.04 nmol/mg/min | 98 % of control | 0.57 nmol/mg/min | did not show any significant inhibition | ~ 35 % of the control | did not show any significant inhibition | –
C[C@]12CC[C@H](O)CC1=CC[C@@H]1[C@@H]2CC[C@]2(C)C(n3cnc4ccccc43)=CC[C@@H]12 [Galeterone] | 76 percent control | 80 percent control | 83 % of control | 0.32 ± 0.02 nmol/mg/min | 88 percent control | 86 percent control | 105 % of control | 0.63 ± 0.10 nmol/mg/min | – | 0.36 ± 0.04 nmol/mg/min | 114 % of control | 0.61 nmol/mg/min | did not show any significant inhibition | ~ 35 % of the control | did not show any significant inhibition | activity at 30 min (CYP3A [4]): 99%
CCc1oc2ccccc2c1C(=O)c1cc(Br)c(O)c(Br)c1 [Benzbromarone] | 83 percent control | 78 percent control | 80 % of control | 0.26 ± 0.02 nmol/mg/min | 97 percent control | 96 percent control | 97 % of control | 0.57 ± 0.08 nmol/mg/min | 104 % of control | 0.34 ± 0.01 nmol/mg/min | 113 % of control | 0.37 nmol/mg/min | did not show any significant inhibition | ~ 35 % of the control | did not show any significant inhibition | –
C/C1=C/CC[C@H](C)C(=O)C[C@@H](C(C)C)C(=O)C1 [Curdione] | 92 percent control | 103 percent control | 99 % of control | 0.37 ± 0.03 nmol/mg/min | 143 percent control | 134 percent control | 94 % of control | 0.38 ± 0.05 nmol/mg/min | 99 % of control | 0.41 ± 0.04 nmol/mg/min | – | – | – | – | – | % of control (catalytic activity at IC50) (CYP3A [1]; possum, compound at estimated IC50 (1 µM where none reported)): 91 % of control; % of control (catalytic activity at IC50) (CYP3A [2]; mouse, compound at estimated IC50 (1 µM where none reported)): 114 % of control; % of control (catalytic activity at IC50) (CYP3A [3]; compound at estimated IC50 (1 µM where none reported)): 97 % of control
